Measured values: the supplement of paper PMC10307832

How the values were obtained:
Experiment in all cases: relative viability (nuclei count vs DMSO), 5 days (fraction); higher = more cells survive
Tosedostat + Palbociclib = compound: CC(C)C[C@@H](C(=O)N[C@H](C(=O)OC1CCCC1)c1ccccc1)[C@H](O)C(=O)NO [Tosedostat] + CC(=O)c1c(C)c2cnc(Nc3ccc(N4CCNCC4)cn3)nc2n(C2CCCC2)c1=O [Palbociclib] (partner 0.5 µM)
Outline: (§1)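 Medians of duplicate plates are given as relative viability. That measure is the nuclei count in treated wells divided by the count in vehicle wells. Counts were taken on 4× images of lung cancer cell lines in 1536-well plates, 5 days after pin-tool dosing the day after seeding with one drug alone or a fixed anchor-drug dose plus five library-drug doses (not always all listed) in √10 steps.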

[1] = compound: CC1=NN=C(O1)C2=NN=C(C=C2)N3CCC(CC3)OC4=C(C=CC(=C4)F)Cl + Nc1ncn([C@H]2C[C@H](O)[C@@H](CO)O2)c(=O)n1 [Decitabine] (partner 2 µM)
Outline: as §1

Tosedostat + Pemetrexed = compound: CC(C)C[C@@H](C(=O)N[C@H](C(=O)OC1CCCC1)c1ccccc1)[C@H](O)C(=O)NO [Tosedostat] + Nc1nc2[nH]cc(CCc3ccc(C(=O)N[C@@H](CCC(=O)O)C(=O)O)cc3)c2c(=O)[nH]1 [Pemetrexed] (partner 0.2 µM)
Outline: as §1

[2] = compound: CC1=NN=C(O1)C2=NN=C(C=C2)N3CCC(CC3)OC4=C(C=CC(=C4)F)Cl + Cc1nc(NC(=O)N2CCC[C@H]2C(N)=O)sc1-c1ccnc(C(C)(C)C(F)(F)F)c1 [Alpelisib] (partner 2 µM)
Outline: as §1

Cell Line | relative viability (Tosedostat + Palbociclib; first compound 0.06325 µM) | relative viability (Tosedostat + Palbociclib; first compound 0.2 µM) | relative viability (Tosedostat + Palbociclib; first compound 0.6325 µM) | relative viability (Tosedostat + Palbociclib; first compound 2 µM) | relative viability ([1]; first compound 0.253 µM) | relative viability ([1]; first compound 0.8 µM) | relative viability ([1]; first compound 2.53 µM) | relative viability ([1]; first compound 8 µM) | relative viability (Tosedostat + Pemetrexed; first compound 0.06325 µM) | relative viability (Tosedostat + Pemetrexed; first compound 0.2 µM) | relative viability (Tosedostat + Pemetrexed; first compound 0.6325 µM) | relative viability (Tosedostat + Pemetrexed; first compound 2 µM) | relative viability ([2]; first compound 0.253 µM) | relative viability ([2]; first compound 0.8 µM) | relative viability ([2]; first compound 2.53 µM) | relative viability ([2]; first compound 8 µM) | relative viability (Tosedostat + Palbociclib; first compound 0.02 µM) | relative viability (Tosedostat + Pemetrexed; first compound 0.02 µM)
NCI-H2085 | 0.498 | 0.474 | 0.512 | 0.561 | 0.479 | 0.477 | 0.446 | 0.406 | 1.02 | 0.929 | 0.959 | 0.714 | 0.922 | 0.908 | 0.8 | 0.71 | – | –
CAL-12T | 0.362 | 0.312 | 0.299 | 0.397 | – | – | – | – | 1.3 | 1.24 | 1.26 | 1.02 | 1.14 | 0.871 | 0.989 | 0.877 | 0.468 | 1.19
HCC-44 | 0.982 | 1.01 | 0.983 | 0.928 | 0.44 | 0.413 | 0.436 | 0.425 | 0.68 | 0.679 | 0.642 | 0.639 | 0.491 | 0.573 | 0.56 | 0.474 | 1.05 | 0.69
EKVX | 0.374 | 0.403 | 0.396 | 0.389 | 0.292 | 0.261 | 0.309 | 0.225 | 0.427 | 0.547 | 0.462 | 0.477 | 0.446 | 0.323 | 0.363 | 0.462 | 0.368 | 0.462
NCI-H1734 | 0.372 | 0.354 | 0.313 | 0.265 | 0.519 | 0.482 | 0.463 | 0.503 | 0.446 | 0.428 | 0.517 | 0.435 | 0.655 | 0.635 | 0.672 | 0.556 | 0.367 | 0.455
NCI-H1944 | 0.356 | 0.386 | 0.32 | 0.377 | 0.306 | 0.288 | 0.321 | 0.309 | 0.656 | 0.84 | 0.619 | 0.819 | 0.565 | 0.629 | 0.691 | 0.648 | 0.315 | 0.626
NCI-H1792 | 0.634 | 0.612 | 0.683 | 0.695 | 0.396 | 0.507 | 0.558 | 0.442 | 0.884 | 0.838 | 0.935 | 0.658 | 0.397 | 0.432 | 0.264 | 0.448 | 0.659 | 0.92
Calu-6 | – | – | – | – | – | – | – | – | – | – | – | – | 0.808 | 0.864 | 0.895 | 0.846 | – | –
EBC-1 | – | – | – | – | – | – | – | – | – | – | – | – | 0.752 | 0.908 | 0.756 | 0.74 | – | –
NCI-H596 | – | – | – | – | 1.01 | 0.977 | 1.08 | 0.762 | 0.488 | 0.515 | 0.497 | 0.45 | – | 0.535 | 0.444 | 0.391 | – | 0.468
A-427 | 0.514 | 0.55 | 0.494 | 0.507 | 0.55 | 0.576 | 0.53 | 0.569 | 1.02 | 0.936 | 0.946 | 0.852 | 1.05 | – | 1.02 | 0.882 | 0.501 | 0.97
NCI-H441 | 0.258 | 0.242 | 0.23 | 0.186 | 0.221 | 0.227 | 0.259 | 0.254 | 0.246 | 0.275 | 0.266 | 0.309 | 0.826 | 0.674 | 0.542 | 0.532 | 0.188 | 0.228
NCI-H1563 | – | – | – | – | – | – | – | – | 0.99 | 0.797 | 1.14 | 0.839 | 1 | 0.952 | 0.999 | 1.09 | – | 0.838
NCI-H358 | 0.134 | 0.131 | 0.137 | 0.136 | 0.19 | 0.212 | 0.197 | 0.181 | 0.2 | 0.164 | 0.143 | 0.161 | 0.72 | 0.829 | 0.778 | 0.822 | 0.141 | 0.173
LOU-NH91 | 0.458 | 0.545 | 0.559 | 0.528 | – | 0.773 | 0.773 | 0.759 | 0.478 | 0.447 | 0.487 | 0.444 | – | 0.649 | 0.713 | 0.726 | 0.549 | 0.394
NCI-H3122 | 0.211 | 0.216 | 0.22 | 0.249 | 0.376 | 0.31 | 0.412 | 0.281 | 0.213 | 0.21 | 0.312 | 0.325 | 0.632 | 0.642 | 0.702 | 0.618 | 0.195 | 0.206
HOP-62 | 0.467 | 0.463 | 0.462 | 0.439 | 0.189 | 0.184 | 0.19 | 0.18 | 0.328 | 0.38 | 0.431 | 0.472 | 0.791 | – | 0.609 | 0.505 | 0.478 | 0.34
HARA | 0.255 | 0.262 | 0.232 | 0.265 | 0.414 | 0.384 | 0.357 | 0.319 | 0.248 | 0.222 | 0.203 | 0.25 | 0.54 | 0.479 | 0.516 | 0.481 | 0.325 | 0.212
SW 1573 | 0.394 | 0.369 | 0.308 | 0.402 | 0.517 | 0.471 | 0.482 | 0.378 | 0.856 | 0.899 | 0.777 | 1 | 0.753 | 0.722 | 0.701 | 0.791 | 0.427 | 0.972
NCI-H1993 | 0.688 | 0.698 | 0.67 | 0.562 | 0.554 | 0.551 | 0.484 | 0.647 | 0.619 | 0.716 | 0.532 | 0.485 | 0.616 | 0.619 | 0.65 | 0.702 | 0.72 | 0.478
